Results published in US20190144912A1, “METHODS FOR IDENTIFYING NOVEL ANTIBIOTICS AND RELATED COMPOSITIONS” (priority 2015, published 2019).

Experiments:
[1] = target: Lsp FRET peptide substrate Dabsyl-VTGC((R)-2,3-di(palmitoyloxy)-propyl)AKD(EDANS); test: cell-based or functional assay
Lsp = Lsp (Escherichia coli, UniProt P00804); settings: cited from earlier work
E. coli Lsp [2] = target: T1, E. coli Lsp (Escherichia coli, UniProt P00804, D131G/R160K); settings: resynthesized compound
Experimental: Next, 50 nL of stock TSRI FL library compounds were pinned into each well to a final concentration of 8.4 μM and plates were centrifuged briefly. […] Fluorescence was measured on an EnVision pate reader (ex. 355 nm; em. 495 nm).
The 344 compounds were subjected to a dose-dependent titration assay with 10-point dose-response titrations (3-fold dilutions) in triplicate. LSP primary and pre-quench titration assays employed the same reagents, protocols, and detection systems as the secondary assays. […] Globomycin was included in the both titration assays as a control. For each test compound, percent activity was plotted against compound concentration. A four parameter equation describing a sigmoidal dose-response curve was then fitted with adjustable baseline using Assay Explorer software (Symyx Technologies Inc.). The reported IC50 values were generated from fitted curves by solving for the X-intercept value at the 50% activity level of the Y-intercept value.

E. coli Lsp [3] = target: T1, E. coli Lsp; test: biochemical; design: The full length E. coli Lsp clone was generated using colony PCR of E. coli K12; His-tag (pET19b leader); made in house; host or cells: E. coli BL21(DE3)pLysS
Experimental: Utilizing the purified and solubilized Lsp enzyme, we developed an in vitro high-throughput functional screening for the integral membrane protease Lsp. First, screening of the Maybridge HitFinder library (Thermo Fisher) was conducted in black polystyrene 384-well low volume plates (Greiner #788076) using a BioRAPTR reagent dispenser (Beckman Coulter). Purified Lsp was diluted to 500 nM in assay buffer (PBS, 5% glycerol, 0.5% DDM pH 7.4) and 10 µL of this stock was added into each well. Next, 100 nL of a 2 mM stock of library compounds were pinned into each well and plates were centrifuged briefly. Following incubation at room temperature for 30 minutes, 2.5 μL of 250 μM Lsp FRET substrate in 25% dimethyl sulfoxide (DMSO), 75% assay buffer was added to each well. The plates were spun down and incubated for 30 minutes at room temperature. The assay was quenched with 2.5 μL of a solution containing 500 mM zinc chloride in water, giving a final concentration of 83 mM. The concentration of Lsp, FRET substrate, and library compounds during the activity assay were 400 nM, 50 μM, and 16 μM, respectively.
Catalytic signal was defined as the full enzyme activity pinning DMSO only, and background signal was measured by adding substrate to assay buffer containing no Lsp.
We tested several fixed concentrations of BBS-20 against varying concentrations of Lsp FRET substrate to determine a mechanism of inhibition (FIG. 8).

[4] = target: T2, Lsp FRET peptide substrate Dabsyl-VTGC((R)-2,3-di(palmitoyloxy)-propyl)AKD(EDANS)
T2 chain: VTGCAKD

T1 sequence (P00804 other isoform, or with tags, fused parts or gaps D131G/R160K): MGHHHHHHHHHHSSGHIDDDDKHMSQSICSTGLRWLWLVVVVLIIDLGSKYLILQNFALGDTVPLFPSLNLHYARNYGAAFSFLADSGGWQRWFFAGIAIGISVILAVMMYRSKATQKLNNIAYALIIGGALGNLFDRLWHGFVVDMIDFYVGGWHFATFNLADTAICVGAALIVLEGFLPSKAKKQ

In the case of “E. coli lipoprotein signal peptidase (Lsp), full length, N-terminal His-tag fusion, DDM-solubilized and purified (from UniProt P00804 1-164) (enzyme)”, the substrate inhibition (Michaelis-Menten kinetics of peptide hydrolysis, FRET) [1] is reported as greater than 100 µM.

In the case of `CCCCCCC1OC(=O)CNC(=O)C(C(C)O)NC(=O)C(CO)NC(=O)C(C(C)CC)NC(=O)C(CC(C)C)N(C)C(=O)C1C` (stereo not shown) [globomycin], the mode of inhibition (Lsp) is listed as “noncompetitively”.

`CCC(CC)c1nnc(NC(=O)c2cc(OC)c(OC)cc2[N+](=O)[O-])s1` [SR-01000270728-1] gave an EC50 (E. coli Lsp [2]) of 2.2 µM.

With `CCN(CC)CCc1cn(CC(=O)NC[C@]2(C)CCC[C@]3(C)c4ccc(C(C)C)cc4CC[C@@H]23)nn1` [BBS-20] the IC50 (E. coli Lsp [3]) was 15 ± 4 µM, the “identified as Lsp inhibitor in Sharpless library screen” value (E. coli Lsp [3]; 16 μM compound, 400 nM Lsp, 50 μM FRET substrate, triplicate) was “inhibitors” and the mode of inhibition (E. coli Lsp [3]; fixed concentrations of compound against varying concentrations of Lsp FRET substrate) was “noncompetitive”.

B1: E. coli lipoprotein signal peptidase (Lsp), full length, N-terminal His-tag fusion, DDM-solubilized and purified (protein)
chain: MSQSICSTGLRWLWLVVVVLIIDLGSKYLILQNFALGDTVPLFPSLNLHYARNYGAAFSFLADSGGWQRWFFAGIAIGISVILAVMMYRSKATQKLNNIAYALIIGGALGNLFDRLWHGFVVDMIDFYVGDWHFATFNLADTAICVGAALIVLEGFLPSRAKKQ
For B1, the “KM (Michaelis-Menten kinetics of peptide hydrolysis, FRET)” value [4] was “KM=5 µM”.
